Measured values reported in publication PMC9788418, “Design, Synthesis and Biological Evaluation of Syn and Anti-like Double Warhead Quinolinones Bearing Dihydroxy Naphthalene Moiety as Epidermal Growth Factor Receptor Inhibitors with Potential Apoptotic Antiproliferative Action” (Molecules, 2022).

Key:
Assay type in all cases: cell-based, human
[1] = tested on: Panc-1 (pancreas cancer cell line); assay: Antiproliferative assay; conditions: Homo sapiens, PANC-1; read-out: Antiproliferative Activity IC50 ± SEM, Panc-1
Protocol: 4.2. Biological evaluation
4.2.1. Cytotoxic activity using MTT Assay and evaluation of IC50 […]
cells were seeded at a density of 10^4 cells mL-1 in flat-bottomed culture plates containing 96 wells each. After 24 h, medium was removed from the plates and the compounds in (in 0.1% DMSO) were added (in 200 μL medium to yield a final concentration of 0.1% v/v) to the wells of plates. A single […]
incubation, medium was removed completely from the plates followed by addition of MTT (0.4 mg/mL in medium) to each well and subsequent incubation of plates for 3h. MTT (along with the medium) was removed and DMSO (150μL) was added to each well of the culture plates, followed by vortexing and subsequent measurement of absorbance (at 540 nm) using microplate reader. The data […]
4.2.1.2. Assay for antiproliferative effect
To explore the antiproliferative potential of compounds MTT assay was performed according to previously reported procedure using different cell lines to explore the antiproliferative potential of compounds propidium iodide fluorescence assay was performed using different cell lines. To calculate the total nuclear DNA, a fluorescent dye (propidium iodide, PI) is used which can attach to the DNA, thus offering a quick and precise technique. PI cannot pass through the cell membrane and its signal intensity can be considered as directly proportional to quantity of cellular DNA. Cells whose cell membranes are damaged or have changed permeability are counted as dead ones. The assay was performed by seeding the cells of different cell lines at a density of 3000-7500 cells/well (in 200µl […]
atmospheric conditions. The medium was removed; the compounds were added to the plates at 10 µM concentrations (in 0.1% DMSO) in triplicates, followed by incubation for 48 h. DMSO (0.1%) was used as control. After incubation, medium was removed followed by the addition of PI (25 µl, 50µg/mL in water/medium) to each well of the plates. At -80 °C, the plates were allowed to freeze for 24 h, followed by thawing at 25 °C. A fluorometer (Polar-Star BMG Tech) was used to record the readings at excitation and emission wavelengths of 530 and 620 nm for each well. The percentage cytotoxicity of compounds was calculated using the following formula:
Where ATC= Absorbance of treated cells and AC= Absorbance of control. […]
positive control in the assay.

[2] = tested on: Cytochrome C; assay: Cytochrome C assay; conditions: for Cytochrome C Conc: A-549; for Cytochrome C Fold Change: A-549, vs control
Protocol: The concentration of Cytochrome c in a cell is crucial for activating caspases and starting the intrinsic apoptosis process. […]
plate cover and incubate at room temperature, on a microplate shaker at 100 rpm if available, for 1 hour. Remove plate cover and empty the wells. Wash microwell strips 3 times as described in step 2.
Proceed to the next step. Pipette 100 μl of mixed TMB Substrate Solution to all wells, including the […]
available on a rotator set at 100 rpm. Avoid direct exposure to intense light. The point, at which the substrate reaction is stopped, is often determined by the ELISA reader. Many ELISA readers record absorbance only up to 2.0 O.D. Therefore, the color development within individual microwells must be watched by the person running the assay and the substrate reaction stopped before positive wells are no longer properly detectable. Stop the enzyme reaction by quickly pipetting 100 μL of Stop Solution into each well, including the blank wells. It is important that the Stop Solution is spread quickly and uniformly throughout the microwells to completely inactivate the enzyme. Results must be read immediately after the Stop Solution is added or within one hour if the microwell strips are stored at 2 - 8°C in the dark. Read absorbance of each microwell on a spectrophotometer using 450 nm as the primary wave length.
4.2.6. Cytochrome C assay […]
cytochrome C, and lysed with Cell Extraction Buffer. This lysate was diluted in Standard Diluent Buffer over the range of the assay and measured for cytochrome C content. (Cells are Plated in cells/well in a volume of 100µl complete growth medium + 100 µl of the tested compound + 50 µl of 1X biotin conjugated antibody+ 100 µl of 1X streptavidin-HRP+ 100 µL TMB substrate soln of per well in a 96-well plate for 24 hours before assay).
4.3. Statistical analysis
Computerized Prism 5 program was used to statistically analyzed data using one-way ANOVA test followed by Tukey’s as post ANOVA for multiple comparison at P ≤.05. Data were presented as […]

[3] = tested on: four tested cancer cell lines (A-549, MCF-7, Panc-1, HT-29); assay: Antiproliferative assay, average over the four cell lines; conditions: for GI50: Homo sapiens, mean of the four cancer cell lines
Protocol: The newly synthesized compounds were tested for antiproliferative activity against four different types of cancer cells: A-549 (epithelial cancer cell line), MCF-7 (breast cancer cell line), Panc-1 (pancreas cancer cell line), and HT-29 (colon cancer cell line).
After 24 h, medium was removed from the plates and the compounds in (in 0.1% DMSO) were added (in 200 μL medium to yield a final concentration of 0.1% v/v) to the wells of plates. A single compound was designated with four wells followed by incubation of plates for 96h at 37°C. After incubation, medium was removed completely from the plates followed by addition of MTT (0.4 mg/mL in medium) to each well and subsequent incubation of plates for 3h. MTT (along with the medium) was removed and DMSO (150μL) was added to each well of the culture plates, followed by vortexing and subsequent measurement of absorbance (at 540 nm) using microplate reader. The data are shown as percentage inhibition of proliferation in comparison with controls containing 0.1% 4.2.1.2. Assay for antiproliferative effect
To explore the antiproliferative potential of compounds MTT assay was performed according to previously reported procedure using different cell lines to explore the antiproliferative potential of compounds propidium iodide fluorescence assay was performed using different cell lines. To calculate the total nuclear DNA, a fluorescent dye (propidium iodide, PI) is used which can attach to the DNA, thus offering a quick and precise technique. PI cannot pass through the cell membrane and its signal intensity can be considered as directly proportional to quantity of cellular DNA. Cells whose cell membranes are damaged or have changed permeability are counted as dead ones. The assay was performed by seeding the cells of different cell lines at a density of 3000-7500 cells/well (in 200µl medium) in culture plates followed by incubation for 24h at 37 °C in humidified 5% CO2/95% air atmospheric conditions. The medium was removed; the compounds were added to the plates at 10 µM concentrations (in 0.1% DMSO) in triplicates, followed by incubation for 48 h. DMSO (0.1%) was used as control. After incubation, medium was removed followed by the addition of PI (25 µl, 50µg/mL in water/medium) to each well of the plates. At -80 °C, the plates were allowed to freeze for 24 h, followed by thawing at 25 °C. A fluorometer (Polar-Star BMG Tech) was used to record the readings at excitation and emission wavelengths of 530 and 620 nm for each well. The percentage cytotoxicity of compounds was calculated using the following formula:
Where ATC= Absorbance of treated cells and AC= Absorbance of control. Erlotinib was used as positive control in the assay.

[4] = tested on: caspase-8; assay: Caspase-8 activation assay; conditions: for Caspase-8 Fold Change: vs control cells

| SMILES | IC50 [1] | Cytochrome C Conc [2] | Cytochrome C Fold Change [2] | GI50 [3] | Caspase-8 Conc [4] | Caspase-8 Fold Change [4] | fold more potent than 4c (GI50) ([3]; relative to 4c) | fold less potent than erlotinib (GI50) ([3]; relative to erlotinib) |
| --- | --- | --- | --- | --- | --- | --- | --- | --- |
| O=c1cc(-n2cc(COc3cccc4cccc(OCc5cn(-c6cc(=O)[nH]c7ccccc67)nn5)c34)nn2)c2ccccc2[nH]1 [Compound 4a, 4,4′-(((naphthalene-1,8-diylbis(oxy))bis(methylene))bis(1H-1,2,3-triazole-4,1-diyl))-bis-(quinolin-2(1H)-one)] | 36 ± 3 nM | 0.80 ng/mL | 16 | 34 nM | 1.20 ng/mL | 6 | – | – |
| Cc1ccc2[nH]c(=O)cc(-n3cc(COc4cccc5cccc(OCc6cn(-c7cc(=O)[nH]c8ccc(C)cc78)nn6)c45)nn3)c2c1 [Compound 4b, 4,4′-(((naphthalene-1,8-diylbis(oxy))bis(methylene))bis(1H-1,2,3-triazole-4,1-diyl))-bis(6-methylquinolin-2(1H)-one)] | 46 ± 4 nM | 0.70 ng/mL | 14 | 45 nM | 0.80 ng/mL | 4 | 1.8 fold | 1.4 fold |
